Data on 19 compounds can be found in patent US11066369B2, “N-(pyridin-2-yl)pyridine-sulfonamide derivatives and their use in the treatment of disease” (Novartis AG, priority 2016, dated 2021).

One test addresses T1, delF508-CFTR (Homo sapiens, UniProt P13569, DEL508-508).
T1 construct: functional activity of the CFTR channel (Chloride ion transport) in patient derived primary human bronchial epithelial cells; host or cells: patient-derived primary human bronchial epithelial cells (delF508-CFTR)
As to the kind of experiment: Measurement of delF508-CFTR functional activity in primary human bronchial epithelial cells (HBECs) using Multi-Transepithelial Clamp Circuit (MTECC-24) assay. Particulars: primary CF HBECs; for MTECC24 CFHBEC- Amax %: test compound added 24h before assay plus potentiator, relative to reference combination (2 μM corrector + 0.5 μM potentiator); for EC50: test compound added 24h before assay, in the presence of potentiator, mean of at least two replicates, read-out: MTECC24 CFHBEC- EC50. It is filed as cell-based. The method, boiled down: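 Patient-derived primary delF508-CFTR HBECs, differentiated at air-liquid interface ~2 weeks, treated basolaterally with compound for 24 h, then apical and basolateral compound in HEPES pH 7.4 assay medium. Equivalent short-circuit current (Ieq) recorded on MTECC-24 with sequential amiloride, forskolin, potentiator and INH-172; normalized to 0.1% DMSO, EC50 from curve fit.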

Test [1] concerns the target T2, horseradish peroxidase (HRP) tagged delF508-CFTR (Homo sapiens, UniProt P13569, DEL508-508).
T2 construct: expressed in transfected cells
As to the kind of experiment: Measurement of delF508-CFTR-HRP surface expression in CFBE41o- cells.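 On DelF508-CFTR-HRP Amax %: percent efficacy relative to reference corrector lumacaftor.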 It counts as cell-based. Particulars: delF508-CFTR-HRP surface expression, CFBE41o- cells; for Emax: read-out: DelF508-CFTR-HRP Amax %; for EC50: read-out: DelF508-CFTR-HRP EC50. The method, boiled down: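 CFBE41o- bronchial epithelial cells stably expressing delF508-CFTR with HRP in the fourth extracellular loop; expression induced 48h with 500 ng/mL doxycycline, then compounds added (top 10 μM, 10-point 3-fold series, ≤0.5% DMSO) for 24h at 37° C. Surface HRP measured by luminescence with cell-impermeant substrate; EC50 from logistic fit of triplicates, plate-normalized to lowest concentration; efficacy also relative to a reference corrector.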

T2 sequence (P13569 with tags, fused parts or gaps DEL508-508): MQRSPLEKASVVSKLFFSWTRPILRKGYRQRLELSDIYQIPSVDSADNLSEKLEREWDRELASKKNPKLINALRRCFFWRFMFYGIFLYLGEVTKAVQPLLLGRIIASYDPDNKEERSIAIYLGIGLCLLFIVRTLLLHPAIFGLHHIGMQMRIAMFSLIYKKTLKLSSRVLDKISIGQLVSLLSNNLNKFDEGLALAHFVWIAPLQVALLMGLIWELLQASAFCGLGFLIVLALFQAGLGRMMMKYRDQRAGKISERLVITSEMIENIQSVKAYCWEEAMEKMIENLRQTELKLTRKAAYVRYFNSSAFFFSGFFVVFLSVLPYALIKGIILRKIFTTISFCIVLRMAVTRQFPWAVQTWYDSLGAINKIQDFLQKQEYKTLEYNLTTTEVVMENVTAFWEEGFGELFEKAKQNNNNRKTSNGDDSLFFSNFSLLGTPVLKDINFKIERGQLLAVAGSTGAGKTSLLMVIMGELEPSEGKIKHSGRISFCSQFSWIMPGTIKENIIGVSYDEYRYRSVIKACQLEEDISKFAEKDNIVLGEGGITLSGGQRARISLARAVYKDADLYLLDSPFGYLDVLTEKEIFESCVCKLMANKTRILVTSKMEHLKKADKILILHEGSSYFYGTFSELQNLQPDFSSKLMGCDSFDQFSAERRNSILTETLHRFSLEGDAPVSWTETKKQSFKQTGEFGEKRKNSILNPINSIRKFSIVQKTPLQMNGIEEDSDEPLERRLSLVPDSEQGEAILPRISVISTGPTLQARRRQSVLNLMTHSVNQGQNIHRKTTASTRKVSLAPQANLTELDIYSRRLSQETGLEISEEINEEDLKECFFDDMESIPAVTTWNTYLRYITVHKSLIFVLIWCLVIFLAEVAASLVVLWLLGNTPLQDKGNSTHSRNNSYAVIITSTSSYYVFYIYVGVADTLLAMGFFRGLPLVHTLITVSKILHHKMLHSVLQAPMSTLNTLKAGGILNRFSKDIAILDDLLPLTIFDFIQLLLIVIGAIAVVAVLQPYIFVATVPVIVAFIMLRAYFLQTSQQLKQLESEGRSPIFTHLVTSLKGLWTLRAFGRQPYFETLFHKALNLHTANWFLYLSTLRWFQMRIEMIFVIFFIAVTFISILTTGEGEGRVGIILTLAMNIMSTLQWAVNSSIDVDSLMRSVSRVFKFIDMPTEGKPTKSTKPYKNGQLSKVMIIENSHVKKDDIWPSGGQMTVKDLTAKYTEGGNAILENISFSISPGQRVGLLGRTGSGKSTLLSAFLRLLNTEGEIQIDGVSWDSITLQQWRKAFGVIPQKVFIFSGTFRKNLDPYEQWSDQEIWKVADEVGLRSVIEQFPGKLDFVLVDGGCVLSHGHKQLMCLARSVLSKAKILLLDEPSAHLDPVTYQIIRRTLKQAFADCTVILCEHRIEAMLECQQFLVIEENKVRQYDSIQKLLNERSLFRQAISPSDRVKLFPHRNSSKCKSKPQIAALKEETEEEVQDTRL
T1 sequence (P13569 with tags, fused parts or gaps DEL508-508): as above

On to `Cc1ccccc1-c1nc(NS(=O)(=O)c2cccc(N3CC(O)C3)n2)ccc1C(F)(F)F` [Example 233, 6-(3-hydroxyazetidin-1-yl)-N-(6-(o-tolyl)-5-(trifluoromethyl)pyridin-2-yl)pyridine-2-sulfonamide], for which, on delF508-CFTR, the “MTECC24 CFHBEC- Amax %” value was found to be 85.3% and the half-maximal effective concentration (EC50) was 5.2 nM. For the same compound, in test [1], the Emax was determined as 586% and the half-maximal effective concentration (EC50) turned out to be 1530 nM.
The corresponding values for `Cc1ccc(F)cc1-c1nc(NS(=O)(=O)c2cccc(N3CC(O)C3)n2)ccc1Cl` [Example 234, N-(5-chloro-6-(5-fluoro-2-methylphenyl)pyridin-2-yl)-6-(3-hydroxyazetidin-1-yl)pyridine-2-sulfonamide] are 84.0%, 11.3 nM, 513% and 1930 nM.
Take `Cc1ccc(F)cc1-c1nc(NS(=O)(=O)c2cccc(N3CC(O)(CO)C3)n2)ccc1Cl` [Example 235, N-(5-chloro-6-(5-fluoro-2-methylphenyl)pyridin-2-yl)-6-(3-hydroxy-3-(hydroxymethyl)azetidin-1-yl)pyridine-2-sulfonamide]: on delF508-CFTR, the “MTECC24 CFHBEC- Amax %” value is listed as 57.6% and the EC50 worked out at 182 nM. Further, in test [1], the Emax came to 203% and the concentration giving a half-maximal response (EC50) turned out to be 1970 nM.
In the case of `CC1(C(=O)O)CCN(c2cccc(S(=O)(=O)Nc3ccc(C(F)(F)F)c(-c4ccccc4C4CC4)n3)n2)CC1` [Example 237, 1-(6-(N-(6-(2-cyclopropylphenyl)-5-(trifluoromethyl)pyridin-2-yl)sulfamoyl)pyridin-2-yl)-4-methylpiperidine-4-carboxylic Acid], at delF508-CFTR, the “MTECC24 CFHBEC- Amax %” value is 55.4% and the EC50 was 4.3 nM. For the same compound, in test [1], the Emax was determined as 544% and the EC50 came to 1460 nM.
For the compound `CC1(C(=O)O)CCN(c2cccc(S(=O)(=O)Nc3ccc(C(F)(F)F)c(-c4ccccc4Cl)n3)n2)CC1` [Example 238, 1-(6-(N-(6-(2-chlorophenyl)-5-(trifluoromethyl)pyridin-2-yl)sulfamoyl)pyridin-2-yl)-4-methylpiperidine-4-carboxylic Acid], at delF508-CFTR, the “MTECC24 CFHBEC- Amax %” value came to 59.0% and the half-maximal effective concentration (EC50) was determined as 19.6 nM. Besides, in test [1], the Emax turned out to be 426% and the concentration for a half-maximal effect (EC50) was 3460 nM.
Consider `COc1ccc(Cl)c(-c2nc(NS(=O)(=O)c3cccc(N4CCC(C)(C(=O)O)CC4)n3)ccc2C(F)(F)F)c1` [Example 241, 1-(6-(N-(6-(2-chloro-5-methoxyphenyl)-5-(trifluoromethyl)pyridin-2-yl)sulfamoyl)pyridin-2-yl)-4-methylpiperidine-4-carboxylic Acid], for which, on delF508-CFTR, the “MTECC24 CFHBEC- Amax %” value is reported as 48.9% and the EC50 turned out to be 12.4 nM. Further, in test [1], the Emax was determined as 510% and the EC50 amounted to 2890 nM.
The corresponding values for `CC1(C(=O)O)CCN(c2cccc(S(=O)(=O)Nc3ccc(C(F)(F)F)c(-c4cccc(F)c4Cl)n3)n2)CC1` [Example 242, 1-(6-(N-(6-(2-chloro-3-fluorophenyl)-5-(trifluoromethyl)pyridin-2-yl)sulfamoyl)pyridin-2-yl)-4-methylpiperidine-4-carboxylic Acid] are 63.2%, 20.3 nM, 468% and 2920 nM.
With `CC1(C(=O)O)CCN(c2cccc(S(=O)(=O)Nc3ccc(Cl)c(-c4cccc(F)c4Cl)n3)n2)CC1` [Example 245, 1-(6-(N-(5-chloro-6-(2-chloro-3-fluorophenyl)pyridin-2-yl)sulfamoyl)pyridin-2-yl)-4-methylpiperidine-4-carboxylic Acid], at delF508-CFTR, the “MTECC24 CFHBEC- Amax %” value turned out to be 48.0% and the concentration giving a half-maximal response (EC50) stood at 43.1 nM. In addition, in test [1], the Emax is 246% and the EC50 worked out at 3440 nM.
The corresponding values for `COC(=O)C1CCN(c2cccc(S(=O)(=O)Nc3ccc(Cl)c(-c4c(C)cccc4C)n3)n2)CC1` [Example 246, methyl 1-(6-(N-(5-chloro-6-(2,6-dimethylphenyl)pyridin-2-yl)sulfamoyl)pyridin-2-yl)piperidine-4-carboxylate] are 56.3%, 51 nM, 875% and 1790 nM.
The corresponding values for `Cc1cccc(C)c1-c1nc(NS(=O)(=O)c2cccc(N3CCC(C(=O)O)CC3)n2)ccc1Cl` [Example 247, 1-(6-(N-(5-chloro-6-(2,6-dimethylphenyl)pyridin-2-yl)sulfamoyl)pyridin-2-yl)piperidine-4-carboxylic Acid] are 57.0%, 191 nM, 493% and 3090 nM.
As for `CCC1(C(=O)O)CCN(c2cccc(S(=O)(=O)Nc3ccc(Cl)c(-c4c(C)cccc4C)n3)n2)CC1` [Example 248, 1-(6-(N-(5-chloro-6-(2,6-dimethylphenyl)pyridin-2-yl)sulfamoyl)pyridin-2-yl)-4-ethylpiperidine-4-carboxylic Acid], at delF508-CFTR, the “MTECC24 CFHBEC- Amax %” value stood at 68.2% and the half-maximal effective concentration (EC50) was determined as 6.6 nM. In test [1], the Emax was determined as 568% and the EC50 came to 1610 nM.
`CCOC(=O)C1(C)CCN(c2cccc(S(=O)(=O)Nc3ccc(Cl)c(-c4c(C)cccc4C)n3)n2)CC1` [Example 249, ethyl 1-(6-(N-(5-chloro-6-(2,6-dimethylphenyl)pyridin-2-yl)sulfamoyl)pyridin-2-yl)-4-methylpiperidine-4-carboxylate]: at delF508-CFTR, the “MTECC24 CFHBEC- Amax %” value came to 79.6% and the EC50 is 6.7 nM. For the same compound, in test [1], the EC50 came out at 1520 nM.
`Cc1cccc(C)c1-c1nc(NS(=O)(=O)c2cccc(N3CCC(C)(C(=O)O)CC3)n2)ccc1Cl` [Example 250, 1-(6-(N-(5-chloro-6-(2,6-dimethylphenyl)pyridin-2-yl)sulfamoyl)pyridin-2-yl)-4-methylpiperidine-4-carboxylic Acid]: at delF508-CFTR, the “MTECC24 CFHBEC- Amax %” value came out at 59.4% and the 50% effective concentration (EC50) amounted to 11 nM. In test [1], the Emax is 744% and the 50% effective concentration (EC50) was determined as 1830 nM.
`CCOC(=O)C1(C)CCN(c2cccc(S(=O)(=O)Nc3ccc(C(F)(F)F)c(-c4cc(F)ccc4C)n3)n2)CC1` [Example 251, ethyl 1-(6-(N-(6-(5-fluoro-2-methylphenyl)-5-(trifluoromethyl)pyridin-2-yl)sulfamoyl)pyridin-2-yl)-4-methylpiperidine-4-carboxylate]: on delF508-CFTR, the “MTECC24 CFHBEC- Amax %” value turned out to be 61.2% and the concentration giving a half-maximal response (EC50) is 3.2 nM. In test [1], the Emax worked out at 894% and the EC50 came out at 1450 nM.
The corresponding values for `Cc1c(F)cccc1-c1nc(NS(=O)(=O)c2cccc(N3CCC(C)(C(=O)O)CC3)n2)ccc1Cl` [Example 253, 1-(6-(N-(5-chloro-6-(3-fluoro-2-methylphenyl)pyridin-2-yl)sulfamoyl)pyridin-2-yl)-4-methylpiperidine-4-carboxylic Acid] are 67.1%, 27.8 nM, 203% and 2290 nM.
The corresponding values for `CCOC(=O)C1(C)CCN(c2cccc(S(=O)(=O)Nc3ccc(Cl)c(-c4ccccc4C)n3)n2)CC1` [Example 254, ethyl 1-(6-(N-(5-chloro-6-(o-tolyl)pyridin-2-yl)sulfamoyl)pyridin-2-yl)-4-methylpiperidine-4-carboxylate] are 62.2%, 3.8 nM, 620% and 2590 nM.
Turning to `Cc1ccccc1-c1nc(NS(=O)(=O)c2cccc(N3CCC(C)(C(=O)O)CC3)n2)ccc1Cl` [Example 255, 1-(6-(N-(5-chloro-6-(o-tolyl)pyridin-2-yl)sulfamoyl)pyridin-2-yl)-4-methylpiperidine-4-carboxylic Acid], on delF508-CFTR, the “MTECC24 CFHBEC- Amax %” value amounted to 55.1% and the EC50 was 10.4 nM. Moreover, in test [1], the Emax was 222% and the concentration giving a half-maximal response (EC50) was determined as 3160 nM.
Regarding `CCOC(=O)C1(C)CCN(c2cccc(S(=O)(=O)Nc3ccc(Cl)c(-c4cc(F)ccc4C)n3)n2)CC1` [Example 256, ethyl 1-(6-(N-(5-chloro-6-(5-fluoro-2-methylphenyl)pyridin-2-yl)sulfamoyl)pyridin-2-yl)-4-methylpiperidine-4-carboxylate], at delF508-CFTR, the “MTECC24 CFHBEC- Amax %” value is recorded as 52.6% and the 50% effective concentration (EC50) is 2.9 nM. In addition, in test [1], the Emax is 662% and the concentration for a half-maximal effect (EC50) was found to be 2780 nM.
The corresponding values for `Cc1ccc(F)cc1-c1nc(NS(=O)(=O)c2cccc(N3CCC(C)(C(=O)O)CC3)n2)ccc1Cl` [Example 257, 1-(6-{[5-chloro-6-(5-fluoro-2-methylphenyl)pyridin-2-yl]sulfamoyl}pyridin-2-yl)-4-methylpiperidine-4-carboxylic Acid] are 63.0%, 21.8 nM, 198% and 1350 nM.
